# Measurements published in patent US11766470B2, “Manufacture, formulation and dosing of apraglutide” (VectivBio AG, priority 2020, dated 2023).
# Square brackets hold non-standard residues; d marks the D form. Peptide text beside a SMILES is read from it. ξ: configuration not given here. Ile(3ξ) = CCC(C)[C@H](N)C(=O)O; Thr(3ξ) = CC(O)[C@H](N)C(=O)O; Nle = CCCC[C@H](N)C(=O)O
# What was measured:
# [1] = as compared with human GLP-2 and other GLP-2 analogues; cited from earlier work
# [2] = test system: anti-apraglutide antibodies; assay: Anti-apraglutide antibodies ELISA in serum, Phase 2 metabolic balance trial (Example 6); assay type: in vivo, human
# Procedure: Blood samples for analysis of the plasma concentration of apraglutide and plasma concentration of fasting L-citrulline, a marker of enterocyte mass, were collected at baseline, during first and second injection (pre-dose and at sequential timepoints), four days after first injection and at the end of treatment. Blood sampling for apraglutide pharmacokinetics was also performed after the fourth and last injection covering 96 hours. […] Blood samples for anti-apraglutide antibodies were collected at baseline, at the end of treatment and at the 4-6 weeks follow-up visit. All eight patients tested negative for anti-apraglutide antibodies at baseline.
# A fully validated ELISA method was used for the detection of anti-apraglutide antibodies in serum, following a three-tiered assay approach. In the first tier, anti-apraglutide antibodies present in samples and controls bonded to apraglutide immobilized on a microtiter plate. The bound anti-apraglutide antibodies were then detected with protein A/G and protein L. A sample with a signal above the validated screening cut-point was considered potentially positive and was then tested in the second tier, the confirmatory assay. For this, samples were pre-treated with an excess of apraglutide prior to testing them in the assay described above. […] Titers were then determined by serial dilution of all confirmed positive samples.
# [3] = Phase I trial, single subcutaneous 5 mg dose in subjects with severe renal impairment vs normal renal function (Example 10), pharmacokinetics; assay type: in vivo, human; settings: for Geometric mean ratio for AUCinf, severe renal impairment vs normal renal function / Geometric mean ratio for Cmax, severe renal impairment vs normal renal function: single SC 5 mg; for Geometric Mean Ratio of AUCinf / Geometric Mean Ratio of Cmax: single subcutaneous dose 5 mg apraglutide, severe renal impairment (Cohort 1) vs normal renal function (Cohort 2)
# Procedure: The following non-limiting example describes a Phase I clinical trial in which subjects with normal and impaired kidney function are treated with the apraglutide formulations of the present disclosure. This Phase I clinical trial investigates the pharmacokinetics and safety of a single subcutaneous dose of 5 mg apraglutide in subjects with varying degrees of renal function. The renal function is calculated by the estimated glomerular filtration rate (eGFR) according to the Chronic Kidney Disease Epidemiology (CKD-EPI) Creatinine Equation.
# The trial is a two-stage, open label, multi-center, non-randomized, Phase I trial. In Part 1 of the trial, 8 subjects with severe renal impairment (Cohort 1) and 6 subjects with normal renal function (Cohort 2) will be administered a single dose 5 mg apraglutide of the present disclosure. In Part 2 of the trial, 8 subjects with moderate renal impairment (Cohort 3) and 8 subjects with mild renal impairment (Cohort 4) will be administered a single dose 5 mg apraglutide of the present disclosure. Subjects will be enrolled if the geometric mean ratio (GMR) of AUCinf or AUClast for the severe renal impairment group compared to the control group is ≥2.
# Patient eligibility is assessed during a screening visit. The main inclusion criteria are: • 1. All Participants • a. Age between 18 and 75 years inclusive • b. Subjects who are willing and able to comply with the study procedures • c. Subjects able to understand and willing to sign the informed consent • d. Body mass index (BMI) of ≥17.5 to ≤40 kg/m2; and a total body weight of >50 kg (110 lb). • e. […] Sterilized or infertile or postmenopausal females. • f. […] Healthy participants • a. No clinically relevant abnormalities (medical history, vital signs, ECG, safety labs) • b. eGFR measured by CKD-EPI≥90 mL/min/1.73 m2 at two screening visits • c. […] Participants with impaired renal function • a. Severe renal impairment: eGFR<30 mL/min/1.73 m2, but not requiring hemodialysis • b. Moderate renal impairment: eGFR≥30 mL/min/1.73 m2 and <60 mL/min/1.73 m2 • c. Mild renal impairment: eGFR≥60 and <90 mL/min/1.73 m2
# Primary endpoint efficacy assessments will be performed at 240 hours after single dose. […] Secondary endpoint efficacy assessments will be performed at 240 hours, 7 days, 14 days, and 28 days. Primary and secondary endpoints will be evaluated across all subjects.
# The secondary endpoints to be evaluated, include, but are not limited to: • 1. Area under the concentration-time curve up to the last measurable concentration from time 0 to 7 days (AUC0-7days). Samples collected over 168 hours after single dose • 2. Time to maximum concentration (Tmax). Samples collected over 240 hours after single dose • 3. Terminal elimination rate constant. Samples collected over 240 hours after single dose • 4. Terminal elimination half-life. Samples collected over 240 hours after single dose • 5. Apparent clearance after extravascular administration (CL/F). Samples collected over 240 hours after single dose • 6. Apparent volume of distribution after extravascular administration (Vz/F). Samples collected over 240 hours after single dose • 7. Number of participants with adverse events or adverse events of special interest at days 14-28 • 8. Clinically significant change from baseline in vital signs at days 14-28 • 9. Clinically significant change from baseline in recorded triplicate 12-lead ECG at days 14-28 • 10. Number of participants who experience a clinically significant change from baseline in clinical laboratory assessments at days 14-28
# The plasma concentration of apraglutide after administration of a single subcutaneous dose of 5 mg apraglutide was monitored over a period of 240 hours in both healthy subjects (Cohort 2) and subjects with severe CKD (Cohort 1) and is presented in FIG. 29.
# Two outliers were identified (one in each Cohort) when analyzing the individual apraglutide plasma concentration curves. […]
# [4] = cohort without the two outliers
smiles,measurement,setting,value
"CCCC[C@H](NC(=O)[C@H](CCC(=O)O)NC(=O)[C@H](CC(=O)O)NC(=O)[C@H](CO)NC(=O)[C@H](Cc1ccccc1)NC(=O)[C@H](CO)NC(=O)CNC(=O)[C@H](CC(=O)O)NC(=O)CNC(=O)[C@@H](N)Cc1c[nH]cn1)C(=O)N[C@H](Cc1ccccc1)C(=O)N[C@H](C(=O)N[C@H](C(=O)N[C@@H](CC(C)C)C(=O)N[C@@H](CC(=O)O)C(=O)N[C@@H](CC(C)C)C(=O)N[C@@H](CC(C)C)C(=O)N[C@@H](C)C(=O)N[C@@H](C)C(=O)N[C@@H](CCCNC(=N)N)C(=O)N[C@@H](CC(=O)O)C(=O)N[C@@H](Cc1ccccc1)C(=O)N[C@H](C(=O)N[C@@H](CC(N)=O)C(=O)N[C@@H](Cc1c[nH]c2ccccc12)C(=O)N[C@@H](CC(C)C)C(=O)N[C@H](C(=O)N[C@@H](CCC(N)=O)C(=O)N[C@H](C(=O)N[C@@H](CCCCN)C(=O)N[C@H](C(=O)N[C@H](C(=O)N[C@@H](CC(=O)O)C(N)=O)C(C)O)C(C)CC)C(C)O)C(C)CC)C(C)CC)C(C)CC)C(C)O (stereo partly drawn) [apraglutide, L-histidyl-glycyl-L-aspartyl-glycyl-L-seryl-L-phenylalanyl-L-seryl-L-aspartyl-L-glutamyl-L-norleucyl-D-phenylalanyl-L-threonyl-Lisoleucyl-L-leucyl-L-aspartyl-L-leucyl-L-leucyl-L-alanyl-L-alanyl-L-arginyl-L-aspartyl-L-phenylalanyl-L-isoleucyl-L-asparaginyl-Ltryptophanyl-L-leucyl-L-isoleucyl-L-glutaminyl-L-threonyl-L-lysyl-L-isoleucyl-L-threonyl-Laspartic acid amide] (H-HGDGSFSDE[Nle][dF][Thr(3ξ)][Ile(3ξ)]LDLLAARDF[Ile(3ξ)]NWL[Ile(3ξ)]Q[Thr(3ξ)]K[Ile(3ξ)][Thr(3ξ)]D-NH2)",half-life,[1],at least 30 hours
same,Patients who developed anti-apraglutide antibodies,"[2]; during the trial, patient with SBS-IF",One
same,"Effects of anti-apraglutide antibodies on PK profile, pharmacodynamic response, adverse events",[2]; in vivo,No effects of anti-apraglutide antibodies were detected
same,"Geometric mean ratio for AUCinf, severe renal impairment vs normal renal function",[3]; entire subject population,0.614
same,"Geometric mean ratio for Cmax, severe renal impairment vs normal renal function",[3]; entire subject population,0.572
same,"Geometric mean ratio for AUCinf, severe renal impairment vs normal renal function",[3]; outlier subjects removed,0.849
same,"Geometric mean ratio for Cmax, severe renal impairment vs normal renal function",[3]; outlier subjects removed,0.774
same,Geometric Mean Ratio of AUCinf,[3]; [4],0.849
same,Geometric Mean Ratio of Cmax,[3]; [4],0.774
same,Geometric Mean Ratio of AUCinf,[3]; whole cohort,0.614
same,Geometric Mean Ratio of Cmax,[3]; whole cohort,0.572
